Data: article PMC9290910, “Neuropilin‐1 is required for endothelial cell adhesion to soluble vascular endothelial growth factor receptor 1” (The Febs Journal, 2021)
Entries after “also recorded” stand apart in the source; their conditions may differ.

Columns and labels:
[1] = test system: EC (HUVEC) adhesion to sVEGFR‐1; experiment: Cell adhesion assay, EC adhesion to sVEGFR‐1; assay type: cell-based, human; settings: for effect on EC adhesion to sVEGFR‐1: peptide 20 µg·mL^−1 during adhesion, 37 °C, 1 h, 20 µg·mL^−1 VEGFR‐1/Fc coating, crystal violet, 540 nm, triplicate
Experimental: (§1) Human umbilical vein endothelial cells (HUVEC) were isolated from freshly delivered umbilical cords, as previously described, cultured in Endothelial Cell Growth Medium‐2 Kit from Clonetics (EGM‐2, CC4176, Lonza, Basel, Switzerland), and used up to passage 6. For functional assays, HUVEC were resuspended in Endothelial Basal Medium‐2 (EBM‐2, CC3156, Lonza). A pool of cells derived from four different individuals was used.
(§2) Solid support for adhesion assay was prepared by incubating immunological 96‐multiwell plates with 20 µg·mL^−1 VEGFR‐1/Fc chimera, or fibronectin solubilized in PBS. After 2 h, the coating solution was removed, and the well surface was blocked with 3% BSA in PBS for 18 h, before plating ECs in serum‐free medium at 3 × 10^4 cells per well. After incubation at 37 °C for 1 h, the wells were washed with PBS and attached cells were fixed with 3% formaldehyde and stained with 0.5% crystal violet. Attachment efficiency was determined by quantitative dye extraction and spectrophotometric measurement of the absorbance at 540 nm, using a Microplate reader 3550‐UV (Bio‐Rad). In competition experiments, peptides Flt2‐11, scrambled Flt2‐11, Flt2‐8 or Flt2‐5, at 20 µg·mL^−1, were added during the adhesion assay. Adhesion to peptide 12 was carried out by using maleic anhydride activated microplates (Reacti‐Bind, Pierce, Rockford, IL, USA) coated with 500 µg·mL^−1 of the peptide.

[2] = test system: EC (HUVEC) adhesion to fibronectin; experiment: Cell adhesion assay, EC adhesion to fibronectin; assay type: cell-based, human
Experimental: as §1, §2

[3] = molecular target: T1, NRP‐1/VEGFR‐1 interaction (Homo sapiens, UniProt O14786); experiment: SPR, inhibition of NRP‐1/VEGFR‐1 interaction; assay type: binding; settings: in words, NRP‐1 immobilized, VEGFR‐1 5 nM
T1 construct: purchased R&D Systems 3870-N1 (NRP-1); 321-FL-050 (VEGFR-1/Fc)
T1 sequence (O14786 22-644 isoform O14786-2 limits assumed): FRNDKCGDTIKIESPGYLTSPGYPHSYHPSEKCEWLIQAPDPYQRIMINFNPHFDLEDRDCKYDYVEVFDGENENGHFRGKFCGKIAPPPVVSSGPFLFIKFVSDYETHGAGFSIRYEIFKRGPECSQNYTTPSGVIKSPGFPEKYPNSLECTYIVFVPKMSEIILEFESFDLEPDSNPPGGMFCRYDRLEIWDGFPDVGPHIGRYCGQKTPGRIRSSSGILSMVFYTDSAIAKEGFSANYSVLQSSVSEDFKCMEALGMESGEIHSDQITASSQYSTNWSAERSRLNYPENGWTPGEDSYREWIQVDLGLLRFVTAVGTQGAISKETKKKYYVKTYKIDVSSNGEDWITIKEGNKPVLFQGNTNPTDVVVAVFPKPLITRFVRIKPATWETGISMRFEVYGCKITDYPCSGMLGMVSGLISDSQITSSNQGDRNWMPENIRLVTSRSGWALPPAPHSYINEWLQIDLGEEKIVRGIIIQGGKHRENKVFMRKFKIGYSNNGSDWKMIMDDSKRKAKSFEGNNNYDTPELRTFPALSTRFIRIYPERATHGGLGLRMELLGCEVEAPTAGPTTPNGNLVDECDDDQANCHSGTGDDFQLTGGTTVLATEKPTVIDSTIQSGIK
Experimental: Fig. 2 Flt2‐11 peptide inhibits NRP‐1 binding to VEGFR‐1. SPR analysis of the interaction between VEGFR‐1 and NRP‐1 in peptide absence (A), or presence of Flt2‐11 peptide (B) or scrambled Flt2‐11 peptide (C). NRP‐1 is immobilized on the sensor chip. (A) VEGFR‐1 is injected at different concentrations (from bottom to top: 0.6 nM, cyan; 1 nM, red; 2 nM, green; 2.5 nM, blue; and 5 nM, black). […] (B) VEGFR‐1 is injected at 5 nM together with peptide Flt2‐11 at different concentrations (from top to bottom: 0, black; 5 nM, blue; 15 nM, green; 45 nM, red; 100 nM, cyan; and 800 nM, magenta). […] (C) VEGFR‐1 is injected at 5 nM together with ‘scrambled’ Flt2‐11 peptide at different concentrations (from top to bottom: 0, black; 0.5 μM, blue; 950 μM, geen; and […], red).
SPR experiments were carried out using a BIACORE X system (Biacore AB, Uppsala, Sweden). […] The reaction was carried out in 20 mM sodium acetate at pH 5.0, which is about 2 points below the theoretical NRP‐1 isoelectric point calculated using the program pI‐tool. […]
RU express the mass concentration‐dependent changes in the observed SPR signal, that is, the refractive index on the sensor chip surface. Changes in this signal are determined by the interaction between the immobilized protein (i.e., either NRP‐1 or VEGFR‐1) with the analyte protein (i.e., VEGFR‐1/Fc, α5β1 integrin or semaphorin 3A). […]

[4] = test system: HUVEC migration towards sVEGFR‐1; experiment: Migration assay (Boyden chamber) towards sVEGFR‐1; assay type: cell-based, human; settings: peptide 40 µM, 30 min preincubation; sVEGFR‐1 5 µg·mL^−1; 2 h, 37 °C; triplicate
Experimental: as §1
Cell migration was analysed using Boyden chambers equipped with 8 µm pore diameter polycarbonate filters (Nuclepore, Whatman Incorporated, Clifton, NJ, USA). Human sVEGFR‐1 stimulus (5 µg·mL^−1) for chemotaxis was added to the lower chamber and HUVEC (1.5 × 10^5) were loaded into the upper chamber. […] Cells were then loaded into the Boyden chambers without removing the peptides, and migration towards sVEGFR‐1 was analysed. […] Cells from the upper surface were removed by wiping with a cotton swab, and the chemotactic response was determined by counting the migrating cells attached to the lower surface of the filter in 12 randomly selected microscopic fields (×200 magnification) per experimental condition. Quantification was performed by two independent observers, blinded to the examined condition.

Recombinant human NRP‐1 = molecular target: T2, Recombinant human NRP‐1 (human, UniProt O14786 22-856); experiment: SPR; competition: NRP-1 immobilised by amine coupling; protein analyte at a fixed concentration (VEGFR-1/Fc 5 nM; α5β1 integrin 200 nM; semaphorin 3A 200 nM) injected together with peptide at different concentrations; HEPES-buffered saline; settings: both partners purified
T2 construct: Neuropilin-1, human, recombinant soluble protein; see the vendor's datasheet (as far as I recall an extracellular fragment with a C-terminal His tag); also called Neuropilin‐1; soluble NRP‐1; source: bought: R&D Systems (3870‐N1)
T2 sequence (looked up): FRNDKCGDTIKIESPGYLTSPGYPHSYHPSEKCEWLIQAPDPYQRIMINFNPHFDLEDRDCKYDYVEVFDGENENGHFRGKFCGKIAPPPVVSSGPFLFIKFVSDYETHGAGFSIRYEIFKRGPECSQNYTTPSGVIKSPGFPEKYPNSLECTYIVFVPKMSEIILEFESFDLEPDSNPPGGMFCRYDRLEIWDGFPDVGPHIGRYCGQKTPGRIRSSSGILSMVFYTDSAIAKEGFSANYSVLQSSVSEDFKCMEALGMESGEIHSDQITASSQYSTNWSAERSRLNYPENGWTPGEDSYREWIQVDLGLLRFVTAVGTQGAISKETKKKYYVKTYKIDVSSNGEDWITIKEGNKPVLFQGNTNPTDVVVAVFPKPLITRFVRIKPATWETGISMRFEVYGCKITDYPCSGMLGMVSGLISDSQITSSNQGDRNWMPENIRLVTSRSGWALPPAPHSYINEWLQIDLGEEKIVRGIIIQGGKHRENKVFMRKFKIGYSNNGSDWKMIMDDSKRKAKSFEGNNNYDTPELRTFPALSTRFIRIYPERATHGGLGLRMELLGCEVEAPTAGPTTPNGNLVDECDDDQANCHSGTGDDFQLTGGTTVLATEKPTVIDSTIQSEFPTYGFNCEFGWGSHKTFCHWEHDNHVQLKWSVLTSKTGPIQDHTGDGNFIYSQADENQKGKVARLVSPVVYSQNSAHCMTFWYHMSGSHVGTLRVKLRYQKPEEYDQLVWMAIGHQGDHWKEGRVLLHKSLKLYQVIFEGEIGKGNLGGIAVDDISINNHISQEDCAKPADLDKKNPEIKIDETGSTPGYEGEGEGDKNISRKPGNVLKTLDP

[5] = ECs pretreated with soluble NRP‐1

For “LVPLKIKNTFT [scrambled Flt2‐11, containing the same residues as Flt2‐11 but in a different order, reference compound]”, the “effect on EC adhesion to sVEGFR‐1” value [1] was “does not affect EC adhesion”, the “effect on EC adhesion to fibronectin” value ([2]; peptide 20 µg·mL^−1 during adhesion, 37 °C, 1 h, 20 µg·mL^−1 fibronectin coating, crystal violet, 540 nm, triplicate) was “does not affect EC adhesion” and the “effect on NRP‐1/VEGFR‐1 (sVEGFR‐1) interaction” value [3] was “had no effect on NRP‐1/VEGFR‐1 interaction; also recorded: inhibits NRP‐1/VEGFR‐1 interaction only at high concentrations”.

In the case of “NITVT [Flt2‐5, Flt2‐11 peptide variant comprising the first five N‐terminal residues]”, the “effect on EC adhesion to sVEGFR‐1” value [1] is reported as “same ability as the parent Flt2‐11 peptide to inhibit cell adhesion to; also recorded: able to significantly inhibit EC adhesion; also recorded: efficacy comparable to that of the parent eleven‐residue Flt2‐11 peptide”, the “effect on EC migration towards sVEGFR‐1” value [4] is reported as “same ability as the parent Flt2‐11 peptide to inhibit cell adhesion to, and migration towards, sVEGFR‐1; also recorded: migration towards, sVEGFR‐1 (Fig. 6C), to a similar extent as the Flt2‐11 peptide; also recorded: efficacy comparable to that of the parent eleven‐residue Flt2‐11 peptide” and the “effect on NRP‐1/VEGFR‐1 (sVEGFR‐1) interaction” value [3] is reported as “inhibiting NRP‐1/sVEGFR‐1 interaction as well”.

For “soluble NRP‐1: Recombinant human NRP‐1 (3870‐N1), R&D Systems”, the “effect of soluble NRP‐1 on EC adhesion to sVEGFR‐1” value [1, 5] was “not detectably altered”, the “effect of soluble NRP‐1 on EC adhesion to sVEGFR‐1” value ([1]; soluble NRP‐1 on coated plates prior to EC addition) was “impaired” and the “effect of soluble NRP‐1 on EC adhesion to fibronectin” value [2, 5] was “not detectably altered”.

B1: Flt_(2‐11) peptide (peptide)
peptide: NITVTLKKFPL
notes: Unlabelled peptide, as co-injected in the SPR experiments; also called peptide Flt_(2‐11); source: synthetic peptide (Primm, Milan)
B1 showed a Ki (Recombinant human NRP‐1) of 20 nM.
